Assay: xn = mol fraction of the nth substance listed
Conditions: 101 kPa, Liquid; for mass density: Vibrating tube method; for speed of sound: Sing-around technique in a fixed-path interferometer

CCCCCCCCCCn1cc[n+](C)c1.[Cl-] [1-decyl-3-methylimidazolium chloride] + O
Conditions | mass density, 298 K [kg/m3] | mass density, 303 K [kg/m3] | mass density, 308 K [kg/m3] | mass density, 313 K [kg/m3] | speed of sound, 303 K [m/s] | speed of sound, 308 K [m/s] | speed of sound, 313 K [m/s]
x1 = 0.000105 | 997.096 | 995.704 | 994.091 | 992.269 | 1510.3 | 1520.9 | 1529.9
x1 = 0.000185 | 997.108 | 995.706 | 994.084 | 992.257 | 1511.1 | 1521.6 | 1530.5
x1 = 0.000277 | 997.114 | 995.707 | 994.08 | 992.252 | 1512.1 | 1522.5 | 1531.4
x1 = 0.000377 | 997.124 | 995.711 | 994.079 | 992.242 | 1513.1 | 1523.4 | 1532.2
x1 = 0.000452 | 997.122 | 995.705 | 994.068 | 992.229 | 1513.8 | 1524.1 | 1532.8
x1 = 0.000546 | 997.141 | 995.718 | 994.074 | 992.227 | 1514.7 | 1524.9 | 1533.5
x1 = 0.000728 | 997.166 | 995.732 | 994.082 | 992.229 | 1516.6 | 1526.7 | 1535.1
x1 = 0.000836 | 997.199 | 995.759 | 994.1 | 992.239 | 1517.7 | 1527.7 | 1536
x1 = 0.001002 | 997.205 | 995.75 | 994.083 | 992.214 | 1519.2 | 1528.9 | 1537.2
x1 = 0.001099 | 997.182 | 995.72 | 994.044 | 992.17 | 1519.7 | 1529.4 | 1537.6
x1 = 0.00118 | 997.205 | 995.739 | 994.057 | 992.176 | 1520.3 | 1529.9 | 1538
x1 = 0.001259 | 997.199 | 995.728 | 994.044 | 992.167 | 1520.6 | 1530.2 | 1538.3
x1 = 0.001351 | 997.192 | 995.715 | 994.028 | 992.142 | 1521 | 1530.5 | 1538.6
x1 = 0.001452 | 997.175 | 995.694 | 994.006 | 992.118 | 1521.5 | 1531 | 1539
x1 = 0.001539 | 997.164 | 995.683 | 993.985 | 992.095 | 1521.6 | 1531.1 | 1539
x1 = 0.001631 | 997.146 | 995.659 | 993.962 | 992.066 | 1521.9 | 1531.3 | 1539.2
x1 = 0.001869 | 997.078 | 995.549 | 993.807 | 991.864 | 1522.4 | 1531.7 | 1539.5
x1 = 0.001988 | 997.079 | 995.574 | 993.859 | 991.947 | 1522.6 | 1531.9 | 1539.7
